Source: patent publication US20090118286A1, “Heterobicyclic Acrylamides” (Bayer Cropscience AG, priority 2005, published 2009)
Where two headings read alike, the source gives them in different places.

What was measured:
[1] = log P determination by HPLC (EEC Directive 79/831 Annex V.A8, gradient method); format: physicochemical; settings: HPLC, gradient method, acetonitrile/0.1% strength aqueous phosphoric acid or formic acid
[2] = system: larvae of the mustard beetle (Phaedon cochleariae); test: Phaedon test, PHAECO spray treatment; format: in vivo; settings: foliar, 168 h, 500 g a. i./ha, spray treatment of Chinese cabbage leaf discs, 7 d, read-out: % 7 d (effect in %, beetle larvae killed)
Method: (§1) [table] To produce a suitable preparation of active compound, 1 part by weight of active compound is mixed with the stated amounts of solvents and emulsifier, and the concentrate is diluted with emulsifier-containing water to the desired concentration. Discs of Chinese cabbage leaves (Brassica pekinensis) are sprayed with a preparation of active compound of the desired concentration and, after drying, populated with larvae of the mustard beetle (Phaedon cochleariae). After the desired period of time, the effect in % is determined. 100% means that all beetle larvae have been killed; 0% means that none of the beetle larvae have been killed.

[3] = system: caterpillars of the army worm (Spodoptera frugiperda); test: Spodoptera frugiperda test, SPODFR spray treatment; format: in vivo; settings: foliar, 168 h, 500 g a. i./ha, spray treatment of maize leaf discs, 7 d, read-out: % 7 d (effect in %, caterpillars killed)
Method: as §1, with “maize” for “Chinese cabbage”, “(Zea mays)” for “(Brassica pekinensis)”, “caterpillars” for “larvae”, “army worm (Spodoptera frugiperda).” for “mustard beetle (Phaedon cochleariae).”, “caterpillars” for “beetle larvae”

SMILES	chromatographic logP ([1]; read-out: Physical data (logP))	pest or weed control at 500 g/ha [2] [%]	pest or weed control at 500 g/ha [3] [%]	chromatographic logP ([1]; read-out: Physical data: log P)	chromatographic logP ([1]; read-out: Physical data: logP)
O=C(/C=C/c1c(-c2ccccc2Cl)nc2sc(C(F)(F)F)nn12)NC1CC1 [Example 0152]	2.88	100			
CC(NC(=O)/C=C/c1c(-c2cc(Cl)ccc2Cl)nc2sc(C(F)(F)F)nn12)C(F)(F)F (centres unmarked) [Example 0729]		100			
CC(C)NC(=O)/C=C/c1c(-c2ccc(Cl)cc2Cl)nc2sc(C(F)(F)F)nn12 [Example 0513]			100	3.69	
CCCC(C)NC(=O)/C=C/c1c(-c2ccccc2F)nc2sc(C(F)(F)F)nn12 (centres unmarked) [Example 0452]			100	3.68	
CC(NC(=O)/C=C/c1c(-c2cccc(C(F)(F)F)c2)nc2sc(C(F)(F)F)nn12)c1ccccn1 (centres unmarked) [Example 0416]		100		3.03	
CC(C)C(C)NC(=O)/C=C/c1c(-c2ccc(F)cc2Cl)nc2sc(C(F)(F)F)nn12 (centres unmarked) [Example 0597]			100	3.9	
CC(C)NC(=O)/C=C/c1c(-c2ccc(F)cc2)nc2sc(C(F)(F)F)nn12 [Example 0300]			100	3.24	
CC(NC(=O)/C=C/c1c(-c2ccc(Cl)cc2Cl)nc2sc(C(F)(F)F)nn12)C(F)(F)F (centres unmarked) [Example 0527]			100	4.23	
CC(C)C(NC(=O)/C=C/c1c(-c2ccc(F)cc2Cl)nc2sc(C(F)(F)F)nn12)C(F)(F)F (centres unmarked) [Example 0599]			100	4.37	
CC(NC(=O)/C=C/c1c(-c2ccc(Cl)c(Cl)c2)nc2sc(C(F)(F)F)nn12)c1ccccn1 (centres unmarked) [Example 0793]		100			3.26
CC(NC(=O)/C=C/c1c(-c2cc(Cl)ccc2Cl)nc2sc(C(F)(F)F)nn12)C(F)(F)F (centres unmarked) [Example 0792]			100		4.13
COc1ccc(-c2nc3sc(C(F)(F)F)nn3c2/C=C/C(=O)NC(C)(C)C)cc1OC [Example 0654]		100			3.37
O=C(/C=C/c1c(-c2ccc(F)cc2Cl)nc2sc(C(F)(F)F)nn12)NCCC(F)(F)F [Example 0604]			100	3.51	
O=C(/C=C/c1c(-c2ccccc2Cl)nc2sc(C(F)(F)F)nn12)Nc1ccc(F)cc1 [Example 0201]	4.08		100		
CCC(C)NC(=O)/C=C/c1c(-c2ccccc2C)nc2sc(C(F)(F)F)nn12 (centres unmarked) [Example 0238]			100	3.59	
CC(C)(C)NC(=O)/C=C/c1c(-c2ccc(Cl)cc2Cl)nc2sc(C(F)(F)F)nn12 [Example 0515]			100	4.32	
CCC(C)NC(=O)/C=C/c1c(-c2ccccc2Cl)nc2sc(C(F)(F)Cl)nn12 (centres unmarked) [Example 0733]			100		3.67
O=C(/C=C/c1c(-c2ccccc2Cl)nc2sc(C(F)(F)F)nn12)NC1CCC1 [Example 0153]	3.33		100		
CCC(CC)NC(=O)/C=C/c1c(-c2ccc(F)cc2Cl)nc2sc(C(F)(F)F)nn12 [Example 0638]			100		3.89
O=C(/C=C/c1c(-c2ccc(F)cc2Cl)nc2sc(C(F)(F)F)nn12)NCC(F)(F)C(F)(F)F [Example 0610]			100	3.97	
CC(NC(=O)/C=C/c1c(-c2ccccc2Cl)nc2sc(C(F)(F)F)nn12)C(F)(F)F (centres unmarked) [Example 0175]	3.63		100		

SMILES	chromatographic logP ([1]; read-out: Physical data (logP))	pest or weed control at 500 g/ha [2] [%]	pest or weed control at 500 g/ha [3] [%]	chromatographic logP ([1]; read-out: Physical data: log P)	chromatographic logP ([1]; read-out: Physical data: logP)
CCCC(C)NC(=O)/C=C/c1c(-c2ccc(F)cc2Cl)nc2sc(C(F)(F)F)nn12 (centres unmarked) [Example 0591]			100	4.02	
CCC(C)NC(=O)/C=C/c1c(-c2ccccc2F)nc2sc(C(F)(F)F)nn12 (centres unmarked) [Example 0451]			100	3.33	
C[C@@H](NC(=O)/C=C/c1c(-c2ccc(F)cc2Cl)nc2sc(C(F)(F)F)nn12)C(F)(F)F [Example 0608]			100	3.77	
O=C(/C=C/c1c(-c2ccccc2Cl)nc2sc(C(F)(F)F)nn12)NCC1CC1 [Example 0166]	3.26	100			
CCN(CC)C(=O)/C=C/c1c(-c2ccc(Cl)cc2Cl)nc2sc(C(F)(F)F)nn12 [Example 0573]			100	4.18	
CC(NC(=O)/C=C/c1c(-c2ccc(F)cc2)nc2sc(C(F)(F)F)nn12)C(F)(F)F (centres unmarked) [Example 0317]			100	3.72	
CC(C)C(C)NC(=O)/C=C/c1c(-c2ccccc2Cl)nc2sc(C(F)(F)Cl)nn12 (centres unmarked) [Example 0740]			100		3.97
O=C(/C=C/c1c(-c2ccc(Cl)cc2Cl)nc2sc(C(F)(F)F)nn12)Nc1ccc(F)cc1 [Example 0553]			100	4.63	
O=C(/C=C/c1c(-c2ccc(F)cc2Cl)nc2sc(C(F)(F)F)nn12)Nc1ccc(F)cc1 [Example 0624]			100	4.17	
Cc1ccccc1-c1nc2sc(C(F)(F)F)nn2c1/C=C/C(=O)NC(C)C(F)(F)F (centres unmarked) [Example 0246]			100	3.76	
CC(NC(=O)/C=C/c1c(-c2ccc(Cl)cc2)nc2sc(C(F)(F)F)nn12)C(F)(F)F (centres unmarked) [Example 0024]	4.13		100		
CC(C)NC(=O)/C=C/c1c(-c2ccccc2F)nc2sc(C(F)(F)F)nn12 [Example 0442]			100	2.96	
CC(NC(=O)/C=C/c1c(-c2ccccc2F)nc2sc(C(F)(F)F)nn12)C(F)(F)F (centres unmarked) [Example 0459]			100	3.55	
Cc1ccccc1-c1nc2sc(C(F)(F)F)nn2c1/C=C/C(=O)NC(C)C [Example 0229]			100	3.24	
O=C(/C=C/c1c(-c2ccccc2Cl)nc2sc(C(F)(F)Cl)nn12)Nc1ccc(F)cc1 [Example 0767]			100		4.19
COCC(C)NC(=O)/C=C/c1c(-c2ccc(F)cc2Cl)nc2sc(C(F)(F)F)nn12 (centres unmarked) [Example 0592]			100	3.11	
CC(C)(C)NC(=O)/C=C/c1c(-c2ccc(F)cc2Cl)nc2sc(C(F)(F)F)nn12 [Example 0583]			100	3.89	
CC(NC(=O)/C=C/c1c(-c2ccccc2Cl)nc2sc(C(F)(F)Cl)nn12)C(F)(F)F (centres unmarked) [Example 0741]			100		3.8
CCC(C)NC(=O)/C=C/c1c(-c2ccccc2Cl)nc2sc(C(F)(F)F)nn12 (centres unmarked) [Example 0167]	3.46		100		
CC(C)NC(=O)/C=C/c1c(-c2ccc(F)cc2Cl)nc2sc(C(F)(F)F)nn12 [Example 0581]			100	3.32	
CCC(CC)NC(=O)/C=C/c1c(-c2ccccc2C)nc2sc(C(F)(F)F)nn12 [Example 0286]			100	3.85	
